From article doi:10.1101/2024.08.25.609621 (bioRxiv, 2024)
Where “and” joins values, the source holds several entries; their conditions need not be identical. Equal values may be shown once. Read-outs that look alike come from different tables or passages of the source.

How the values were obtained:
[1] = biological target: SARS-CoV-2 NSP3 macrodomain (Mac1) (Severe acute respiratory syndrome coronavirus 2, UniProt P0DTD1); test: biochemical; format: binding
[2] = biological target: SARS-CoV-2 NSP3 macrodomain (Mac1), P43 crystal form (Severe acute respiratory syndrome coronavirus 2, UniProt P0DTD1); format: binding; conditions: for binding by crystal soaking: P43 crystal form, repeated attempts, in words; for 1-BDC: PanDDA background density correction; for Pandda run, overall: Modeled / Pandda run, overall: Hit: crystal soak; for Pandda run, overall: Hit: TRUE = ligand hit; for Total number of conformations: ligand conformations modeled in Mac1 crystal structure; for 2*(1-BDC) (%): occupancy estimate from PanDDA 1-BDC
[3] = dose-response, read-out: SARS CoV-2 macrodomain HTRF assay: IC50
[4] = dose-response, read-out: SARS CoV-2 macrodomain HTRF assay: Ki
[5] = from SARS CoV-2 macrodomain HTRF assay
[6] = ligand modeling in Mac1 crystal structure
[7] = stereoisomer(s) modeled in Mac1 crystal structure
[8] = Single dose, 200 μM, mean of three technical replicates, read-out: Average % competition
[9] = preliminary screen, compound at 200 μM, mean of 3-4 technical replicates, read-out: % competition in HTRF assay
[10] = ligand modeling in Mac1 crystal soak
[11] = SARS CoV-2 macrodomain HTRF assay
[12] = SARS CoV-2 macrodomain HTRF assay, read-out: Ki
[13] = stereoisomer(s) of ligand modeled in Mac1 crystal structure
[14] = Dose-response, SARS CoV-2 macrodomain HTRF assay, read-out: IC50
[15] = Single dose, concentration 200 μM, read-out: SARS CoV-2 macrodomain HTRF assay: Average % competition
[16] = Single dose, concentration 200 μM, read-out: Average % competition
[17] = soak concentration 10 mM, TFA/DMSO background map

SMILES: C[C@H]1CC[C@H](CO)N(c2ncnc3[nH]ccc23)C1 (racemic) [AVI-4063]
- IC50 [1, 3]: 56 µM
- Ki [1, 4]: 52 µM
- Ligand efficiency (binding enery per heavy atom) [1, 5]: 0.33
- Number of isomers bound [2, 6]: 1

SMILES: C[C@@H]1CCN(c2ncnc3[nH]ccc23)[C@H](CO)C1 (racemic) [AVI-4064]
- IC50 [1, 3]: 100 µM
- Ki [1, 4]: 93 µM
- Ligand efficiency (binding enery per heavy atom) [1, 5]: 0.31
- Number of isomers bound [2, 6]: 2
- Isomers modeled [2, 7]: RS,SR

SMILES: Nc1ncnc2c1ncn2[C@@H]1O[C@H](COP(=O)(O)OP(=O)(O)OC[C@H]2O[C@@H](O)[C@H](O)[C@@H]2O)[C@@H](O)[C@H]1O.[Na].[Na] [ADP-ribose, reference compound]
- Hill slope ([1]; HTRF dose-response fit, Mac1): 1.1
- X-ray crystal structure ([2]; crystal structure with Mac1 determined (TRUE)): TRUE

SMILES: O=C(O)C1CCCN1S(=O)(=O)c1cccc2nsnc12 (centres unmarked) [AVI-2]
- inhibition at 200 µM [1, 8]: 23%
- inhibition at 200 µM [1, 9]: 23%
- Number of isomers bound [2, 10]: 1

SMILES: c1ccc(-n2nnnc2CSc2nnc(NC3CC3)s2)cc1 [AVI-286]
- Isomers modeled [2]: achiral
- Number of isomers bound [2]: 1

SMILES: O=C(O)C(c1ccccc1)n1sc2ccccc2c1=O (centres unmarked) [AVI-288]
- Number of isomers bound [2, 6]: 1

SMILES: COC1CCCN(S(=O)(=O)c2cc(Cl)cnc2N)C1 (centres unmarked) [AVI-290]
- binding by crystal soaking [2]: failed to observe binding

SMILES: CC(C)n1nnnc1SCc1c(C(=O)O)sc2cccc(F)c12 [AVI-291]
- Number of isomers bound [2, 6]: 1
- Isomers modeled [2, 7]: achiral

SMILES: Nc1ncc(Cl)cc1S(=O)(=O)N1CCCC(O)C1 (centres unmarked) [AVI-295]
- binding by crystal soaking [2]: failed to observe binding

SMILES: Nc1nnc(SCCn2c(=O)oc3ccccc32)s1 [AVI-296]
- Isomers modeled [2]: achiral
- Number of isomers bound [2]: 1

SMILES: CC1CC(C(=O)O)CCN1C(=O)c1ccc2c(c1)NC(=O)CO2 (centres unmarked) [AVI-303]
- inhibition at 200 µM [1, 8]: < 10%
- inhibition at 200 µM [1, 9]: < 10%
- Number of isomers bound [2, 10]: 1

SMILES: OCC(Cc1ccccc1)Nc1ncnc2[nH]ccc12 (centres unmarked) [AVI-313]
- Ligand efficiency (binding enery per heavy atom) [1, 11]: 0.27
- Ki [1, 12]: 120 µM
- IC50 ([1]; read-out: HTRF IC50): 130 µM
- Number of isomers bound [2, 10]: 2
- Isomers modeled [2, 13]: S,R

SMILES: O=C(Nc1ccsc1C(=O)O)c1ccc2c(c1)OCO2 [AVI-316]
- Number of isomers bound [2, 10]: 1
- Isomers modeled [2, 13]: achiral

SMILES: Cc1sc2ncnc(Sc3ccccc3C(=O)O)c2c1C [AVI-317]
- IC50 [1, 14]: > 1000 µM
- Number of isomers bound [2, 10]: 1
- Isomers modeled [2, 13]: achiral,achiral

SMILES: Cc1c(C)n(Cc2ccccc2)c2ncnc(N)c12 [AVI-321]
- inhibition at 200 µM [1, 8]: 19%
- inhibition at 200 µM [1, 9]: 19%
- Number of isomers bound [2, 10]: 1
- Isomers modeled [2, 13]: achiral

SMILES: CC(CNC(=O)c1ccc2c(c1)CCC(=O)N2)C(=O)O (centres unmarked) [AVI-328]
- Ligand efficiency (binding enery per heavy atom) [1, 11]: 0.25
- Ki [1, 12]: 210 µM
- IC50 ([1]; read-out: HTRF IC50): 220 µM
- Number of isomers bound [2, 10]: 2
- Isomers modeled [2, 13]: R,S

SMILES: Cc1ccc2c(c1)CC[C@@H](C(=O)Nc1nnc3n1CCCC3)O2 [AVI-329]
- Number of isomers bound [2]: 1

SMILES: O=C1CCc2cc(C(=O)N3CC(C(=O)O)CCC34CCCC4)c(F)cc2N1 (centres unmarked) [AVI-338]
- IC50 [1, 14]: 800 µM
- Ligand efficiency (binding enery per heavy atom) [1, 11]: 0.16
- Ki [1, 12]: 740 µM
- Number of isomers bound [2, 6]: 1

SMILES: Cc1cc2c(=O)n(CCN3C(=O)c4ccccc4S3(=O)=O)nnc2s1 [AVI-341]
- inhibition at 200 µM [1, 8]: 11%
- inhibition at 200 µM [1, 9]: 11%
- Number of isomers bound [2, 10]: 1
- Isomers modeled [2, 13]: achiral

SMILES: CNc1ccc(NS(=O)(=O)c2cc3cccc(C)c3s2)cn1 [AVI-345]
- inhibition at 200 µM [1, 8]: 18%
- inhibition at 200 µM [1, 9]: 18%
- Number of isomers bound [2, 6]: 1
- Isomers modeled [2, 7]: achiral

SMILES: CC1CCN(C(=O)c2ccc3c(c2)nc(CO)n3C)CC1C(=O)O (centres unmarked) [AVI-348]
- inhibition at 200 µM [1, 8]: < 10%
- inhibition at 200 µM [1, 9]: < 10%
- Number of isomers bound [2, 10]: 1

SMILES: CC(C)(O)[C@H]1CCCN1c1ncnc2[nH]ccc12 [AVI-607, 2-[(2R)-1-{7H-Pyrrolo[2,3-d]pyrimidin-4-yl}pyrrolidin-2-yl]propan-2-ol]
- Ligand efficiency ([1]; binding energy per heavy atom): 0.41
- Ki [1, 4]: 4.7 µM
- Ligand efficiency (binding enery per heavy atom) [1, 5]: 0.41
- IC50 ([1]; read-out: HTRF IC50): 5.1 µM
- Number of isomers bound [2, 10]: 1

SMILES: OC[C@@H]1C[C@H](F)CN1c1ncnc2[nH]ccc12 [AVI-609]
- inhibition at 200 µM [1, 15]: 52%
- inhibition at 200 µM [1, 9]: 52%
- Number of isomers bound [2, 10]: 1

SMILES: OC[C@@H]1C[C@H](O)CN1c1ncnc2[nH]ccc12 [AVI-610]
- IC50 [1, 3]: 160 µM
- Ki [1, 4]: 150 µM
- Ligand efficiency (binding enery per heavy atom) [1, 5]: 0.31
- Number of isomers bound [2, 10]: 1

SMILES: NC(=O)C1(O)CCN(c2ncnc3[nH]ccc23)C1 (centres unmarked) [AVI-611]
- inhibition at 200 µM [1, 16]: 30%
- inhibition at 200 µM [1, 9]: 30%
- Number of isomers bound [2, 10]: 1
- Isomers modeled [2, 13]: S,S

SMILES: CCC1(O)CCN(c2ncnc3[nH]ccc23)C1 (centres unmarked) [AVI-612]
- inhibition at 200 µM [1, 16]: 22%
- inhibition at 200 µM [1, 9]: 22%
- Number of isomers bound [2, 10]: 1

SMILES: O[C@@H]1CN(c2ncnc3[nH]ccc23)C[C@H]1F [AVI-616]
- inhibition at 200 µM [1, 16]: 15%
- inhibition at 200 µM [1, 9]: 15%
- Number of isomers bound [2, 10]: 1

SMILES: O[C@H]1COC[C@@H]1Nc1ncnc2[nH]ccc12 [AVI-1444, (3R,4S)-4-((7H-pyrrolo[2,3-d]pyrimidin-4-yl)amino)tetrahydrofuran-3-ol]
- Number of isomers bound [2, 10]: 1

SMILES: CC(C)(O)[C@@H]1CCCN1c1ncnc2[nH]ccc12 [AVI-1445, (S)-2-(1-(7H-pyrrolo[2,3-d]pyrimidin-4-yl)pyrrolidin-2-yl)propan-2-ol]
- fold decrease in affinity compared to AVI-607 ([1]; HTRF): ~ 5 fold
- Hill slope ([1]; HTRF dose-response fit, Mac1): 1.1
- inhibition at 200 µM [1, 15]: 75%
- SARS CoV-2 macrodomain HTRF assay: Hillslope ([1]; dose-response fit): 1.6
- Ki [1, 4]: 100 µM
- Ligand efficiency (binding enery per heavy atom) [1, 5]: 0.31
- inhibition at 200 µM [1, 9]: 75%
- IC50 ([1]; read-out: HTRF IC50): 110 µM
- 1-BDC [2]: 0.12
- Pandda run, overall: Modeled ([2]; soak concentration 10 mM): TRUE
- Pandda run, overall: Hit ([2]; soak concentration 10 mM): TRUE
- Total number of conformations [2]: 1
- Number of isomers bound [2, 10]: 1
- 2*(1-BDC) (%) [2]: 24%
- X-ray crystallography: Binding site ([2]; site where the ligand is bound in the X-ray crystal structure): Adenosine
- PanDDA run, DMSO background map: 1-BDC ([2]; soak concentration 10 mM): 0.12
- PanDDA run, DMSO background map: Hit ([2]; soak concentration 10 mM): TRUE
- PanDDA run, TFA/DMSO background map: 1-BDC [2, 17]: 0.12
- PanDDA run, TFA/DMSO background map: Hit [2, 17]: TRUE

SMILES: Cc1c[nH]c2ncnc(NCC3(O)CCC3)c12 [AVI-3571, 1-(((5-methyl-7H-pyrrolo[2,3-d]pyrimidin-4-yl)amino)methyl)cyclobutan-1-ol]
- Hill slope ([1]; HTRF dose-response fit, Mac1): 1.0
- Ligand efficiency (binding enery per heavy atom) [1, 11]: 0.39
- Hill slope ([1]; SARS CoV-2 macrodomain HTRF assay, dose-response): 1.0
- IC50 ([1]; SARS CoV-2 macrodomain HTRF assay, dose-response, read-out: IC50): 15 µM
- Ki ([1]; SARS CoV-2 macrodomain HTRF assay, dose-response, read-out: Ki): 14 µM
- 1-BDC [2]: 0.15
- X-ray crystal structure ([2]; X-ray crystal structure determined (TRUE)): TRUE
- Pandda run, overall: Modeled ([2]; soak concentration 10 mM): TRUE
- Pandda run, overall: Hit ([2]; soak concentration 10 mM): TRUE
- Total number of conformations [2]: 2
- Number of isomers bound [2, 10]: 1
- 2*(1-BDC) (%) [2]: 30%
- Binding site ([2]; site of ligand in X-ray crystal structure): Adenosine
- PanDDA run, DMSO background map: 1-BDC ([2]; soak concentration 10 mM): 0.15 and 0.2
- PanDDA run, DMSO background map: Hit ([2]; soak concentration 10 mM): TRUE
- Isomers modeled [2, 13]: achiral,achiral

SMILES: Cc1c[nH]c2ncnc(NCC3(O)CCC(O)CC3)c12 (centres unmarked) [AVI-4329]
- Number of isomers bound [2, 6]: 1
- Isomers modeled [2, 7]: rr,rr

SMILES: CC(C)(C)C1CCCN1c1ncnc2[nH]ccc12 (centres unmarked) [AVI-6000]
- Number of isomers bound [2, 6]: 1
